Source: ChEMBL document CHEMBL5126517, “Structure-Activity Relationship in the Leucettine Family of Kinase Inhibitors” (J Med Chem, 2022)

Target: Glycogen synthase kinase-3 (Sus scrofa, UniProt B2LUN4+I6LNT8)
Assay: Inhibition of porcine brain GSK-3alpha/beta using YRRAAVPPSPSLSRHSSPHQpSEDEEE as substrate incubated for 30 mins in presence of ATP by scintillation counting method
Type: tissue-based
Conditions: not given

In order of falling IC50:
1. COc1cc(/C=C2\N=C(Nc3ccc(N4CCNCC4)cc3)NC2=O)ccc1O  6.5 µM
2. O=C1NC(Nc2ccc(N3CCNCC3)cc2)=N/C1=C\c1ccc2c(c1)OC=CO2  4.6 µM
3. O=C1NC(Nc2ccccc2)=N/C1=C\c1ccc2c(c1)OCCO2  2 µM
4. [2H]C1([2H])Oc2ccc(/C=C3\N=C(Nc4ccccc4)NC3=O)cc2O1  0.75 µM

Target: Dual specificity protein kinase CLK4 (Mus musculus, UniProt O35493)
Assay: Inhibition of GST-fused mouse recombinant CLK4 expressed in Escherichia coli using GRSRSRSRSRSR peptide as substrate incubated for 30 mins in presence of ATP by scintillation counting method
Conditions: not given

Chain of Dual specificity protein kinase CLK4 (O35493 whole entry, the tested form may be a part): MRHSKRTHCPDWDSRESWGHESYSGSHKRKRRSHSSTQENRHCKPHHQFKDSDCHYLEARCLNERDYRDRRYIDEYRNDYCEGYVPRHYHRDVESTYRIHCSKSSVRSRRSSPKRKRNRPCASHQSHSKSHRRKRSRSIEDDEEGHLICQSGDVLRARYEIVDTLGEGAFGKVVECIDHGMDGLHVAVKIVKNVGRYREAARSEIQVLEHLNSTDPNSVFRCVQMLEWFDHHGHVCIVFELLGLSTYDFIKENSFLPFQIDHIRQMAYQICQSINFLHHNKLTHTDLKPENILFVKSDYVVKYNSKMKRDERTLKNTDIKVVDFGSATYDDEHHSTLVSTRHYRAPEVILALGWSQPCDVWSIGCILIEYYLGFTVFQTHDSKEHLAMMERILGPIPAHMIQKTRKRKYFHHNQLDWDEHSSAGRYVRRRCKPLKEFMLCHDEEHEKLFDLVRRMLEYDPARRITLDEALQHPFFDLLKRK

In order of rising IC50:
1. O=C1NC(Nc2ccccc2)=N/C1=C\c1ccc2c(c1)OCCO2  0.14 µM
2. O=C1NC(Nc2ccc(N3CCNCC3)cc2)=N/C1=C\c1ccc2c(c1)OC=CO2  0.64 µM
3. COc1cc(/C=C2\N=C(Nc3ccc(N4CCNCC4)cc3)NC2=O)ccc1O  1.2 µM

Target: Dual specificity protein kinase CLK3 (Mus musculus, UniProt O35492)
Assay: Inhibition of GST-fused mouse recombinant CLK3 expressed in Escherichia coli using GRSRSRSRSRSR peptide as substrate incubated for 30 mins in presence of ATP by scintillation counting method
Conditions: not given

Chain of Dual specificity protein kinase CLK3 (O35492 whole entry, the tested form may be a part): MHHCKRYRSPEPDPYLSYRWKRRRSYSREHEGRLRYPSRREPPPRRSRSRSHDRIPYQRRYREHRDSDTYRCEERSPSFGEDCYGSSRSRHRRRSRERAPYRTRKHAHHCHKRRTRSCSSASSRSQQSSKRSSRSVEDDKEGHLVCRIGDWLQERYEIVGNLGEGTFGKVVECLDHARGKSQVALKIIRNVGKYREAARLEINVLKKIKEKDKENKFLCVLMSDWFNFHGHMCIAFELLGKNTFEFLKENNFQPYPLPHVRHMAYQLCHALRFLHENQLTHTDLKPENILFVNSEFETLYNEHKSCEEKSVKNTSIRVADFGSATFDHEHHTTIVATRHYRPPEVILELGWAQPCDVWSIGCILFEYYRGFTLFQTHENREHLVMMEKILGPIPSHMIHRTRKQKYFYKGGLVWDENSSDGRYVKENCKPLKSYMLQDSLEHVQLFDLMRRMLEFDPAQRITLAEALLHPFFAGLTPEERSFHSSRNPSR

`COc1cc(/C=C2\N=C(Nc3ccc(N4CCNCC4)cc3)NC2=O)ccc1O` and `O=C1NC(Nc2ccc(N3CCNCC3)cc2)=N/C1=C\c1ccc2c(c1)OC=CO2` cannot be ordered by IC50: over 10 µM for the first, over 10 µM for the second.

Going from `O=C1NC(Nc2ccccc2)=N/C1=C\c1ccc2c(c1)OCCO2` to `[2H]C1([2H])Oc2ccc(/C=C3\N=C(Nc4ccccc4)NC3=O)cc2O1`, the IC50 falls from 2.4 µM to 0.5 µM (4.8-fold).

Target: Dual specificity protein kinase CLK1 (Mus musculus, UniProt P22518)
Assay: Inhibition of GST-fused mouse recombinant CLK1 expressed in Escherichia coli using GRSRSRSRSRSR peptide as substrate incubated for 30 mins in presence of ATP by scintillation counting method
Conditions: not given

Chain of Dual specificity protein kinase CLK1 (P22518 whole entry, the tested form may be a part): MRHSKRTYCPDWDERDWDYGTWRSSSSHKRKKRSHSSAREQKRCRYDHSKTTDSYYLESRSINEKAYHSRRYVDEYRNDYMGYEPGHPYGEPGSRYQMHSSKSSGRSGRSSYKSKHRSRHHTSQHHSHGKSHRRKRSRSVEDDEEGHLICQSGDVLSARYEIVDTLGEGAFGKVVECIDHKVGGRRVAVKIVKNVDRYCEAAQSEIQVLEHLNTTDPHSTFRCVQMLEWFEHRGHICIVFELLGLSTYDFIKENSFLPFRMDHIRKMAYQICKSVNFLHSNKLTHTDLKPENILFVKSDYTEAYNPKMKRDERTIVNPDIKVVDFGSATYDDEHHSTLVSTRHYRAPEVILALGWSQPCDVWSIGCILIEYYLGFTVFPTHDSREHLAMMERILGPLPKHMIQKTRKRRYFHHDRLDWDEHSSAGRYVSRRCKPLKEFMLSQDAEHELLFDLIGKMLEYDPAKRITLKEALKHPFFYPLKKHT

In order of rising IC50:
1. [2H]C1([2H])Oc2ccc(/C=C3\N=C(Nc4ccccc4)NC3=O)cc2O1  0.04 µM
2. O=C1NC(Nc2ccccc2)=N/C1=C\c1ccc2c(c1)OCCO2  0.13 µM
3. O=C1NC(Nc2ccc(N3CCNCC3)cc2)=N/C1=C\c1ccc2c(c1)OC=CO2  1.1 µM
4. COc1cc(/C=C2\N=C(Nc3ccc(N4CCNCC4)cc3)NC2=O)ccc1O  1.2 µM

Target: Dual specificity protein kinase CLK2 (Mus musculus, UniProt O35491)
Assay: Inhibition of mouse recombinant GST-fused CLK2 expressed in Escherichia coli using GRSRSRSRSRSR peptide as substrate incubated for 30 mins in presence of ATP by scintillation counting method
Conditions: not given

Chain of Dual specificity protein kinase CLK2 (O35491 whole entry, the tested form may be a part): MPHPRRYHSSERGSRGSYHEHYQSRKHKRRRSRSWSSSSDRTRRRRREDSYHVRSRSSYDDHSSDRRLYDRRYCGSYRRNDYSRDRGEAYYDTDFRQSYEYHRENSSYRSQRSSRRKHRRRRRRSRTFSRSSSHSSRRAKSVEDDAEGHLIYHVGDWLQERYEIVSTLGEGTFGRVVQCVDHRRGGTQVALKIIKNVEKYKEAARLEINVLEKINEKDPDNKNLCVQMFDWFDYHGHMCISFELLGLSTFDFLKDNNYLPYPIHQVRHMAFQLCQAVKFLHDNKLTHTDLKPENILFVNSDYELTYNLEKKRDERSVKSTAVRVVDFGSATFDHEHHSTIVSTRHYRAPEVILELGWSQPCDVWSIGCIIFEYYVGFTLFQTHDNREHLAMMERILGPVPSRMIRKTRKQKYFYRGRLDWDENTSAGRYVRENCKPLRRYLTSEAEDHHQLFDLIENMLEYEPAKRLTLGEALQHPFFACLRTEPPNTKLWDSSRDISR

In order of falling IC50:
1. COc1cc(/C=C2\N=C(Nc3ccc(N4CCNCC4)cc3)NC2=O)ccc1O  3.5 µM
2. O=C1NC(Nc2ccc(N3CCNCC3)cc2)=N/C1=C\c1ccc2c(c1)OC=CO2  2.3 µM
3. O=C1NC(Nc2ccccc2)=N/C1=C\c1ccc2c(c1)OCCO2  0.88 µM
4. [2H]C1([2H])Oc2ccc(/C=C3\N=C(Nc4ccccc4)NC3=O)cc2O1  0.17 µM

Target: Dual specificity tyrosine-phosphorylation-regulated kinase 1A (Homo sapiens, UniProt Q13627)
Assay: Inhibition of GST-fused human recombinant DYRK1A expressed in Escherichia coli using GRSRSRSRSRSR peptide as substrate incubated for 30 mins in presence of ATP by scintillation counting method
Conditions: not given

In order of rising IC50:
1. O=C1NC(Nc2ccccc2)=N/C1=C\c1ccc2c(c1)OCCO2  0.076 µM
2. O=C1NC(Nc2ccc(N3CCNCC3)cc2)=N/C1=C\c1ccc2c(c1)OC=CO2  0.53 µM
3. COc1cc(/C=C2\N=C(Nc3ccc(N4CCNCC4)cc3)NC2=O)ccc1O  1.3 µM

Target: Dual specificity tyrosine-phosphorylation-regulated kinase 1B (Homo sapiens, UniProt Q9Y463)
Conditions: not given

Chain of Dual specificity tyrosine-phosphorylation-regulated kinase 1B (Q9Y463 whole entry): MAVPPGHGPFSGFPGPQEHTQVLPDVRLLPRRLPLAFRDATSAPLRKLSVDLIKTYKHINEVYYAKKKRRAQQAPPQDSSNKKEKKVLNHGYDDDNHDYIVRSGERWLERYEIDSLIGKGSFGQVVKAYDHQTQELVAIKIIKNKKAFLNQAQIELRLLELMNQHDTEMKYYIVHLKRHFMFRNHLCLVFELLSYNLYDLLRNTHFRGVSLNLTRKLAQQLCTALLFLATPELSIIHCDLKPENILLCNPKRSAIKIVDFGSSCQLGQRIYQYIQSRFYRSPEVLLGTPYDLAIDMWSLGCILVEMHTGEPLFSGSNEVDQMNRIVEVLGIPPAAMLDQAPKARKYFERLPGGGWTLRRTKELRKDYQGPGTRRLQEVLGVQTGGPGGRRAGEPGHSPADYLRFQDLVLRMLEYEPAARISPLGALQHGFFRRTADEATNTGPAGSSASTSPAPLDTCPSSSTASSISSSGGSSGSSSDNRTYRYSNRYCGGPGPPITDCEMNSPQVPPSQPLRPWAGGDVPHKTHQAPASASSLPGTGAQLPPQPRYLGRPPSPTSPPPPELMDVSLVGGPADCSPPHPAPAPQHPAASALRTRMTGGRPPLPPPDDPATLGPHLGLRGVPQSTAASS

In order of rising IC50:
1. O=C1NC(Nc2ccccc2)=N/C1=C\c1ccc2c(c1)OCCO2  0.25 µM
2. O=C1NC(Nc2ccc(N3CCNCC3)cc2)=N/C1=C\c1ccc2c(c1)OC=CO2  1.4 µM
3. COc1cc(/C=C2\N=C(Nc3ccc(N4CCNCC4)cc3)NC2=O)ccc1O  2.2 µM

Target: T1, Dual specificity tyrosine-phosphorylation-regulated kinase 2 (Homo sapiens, UniProt Q92630)
T1 sequence (Q92630 whole entry): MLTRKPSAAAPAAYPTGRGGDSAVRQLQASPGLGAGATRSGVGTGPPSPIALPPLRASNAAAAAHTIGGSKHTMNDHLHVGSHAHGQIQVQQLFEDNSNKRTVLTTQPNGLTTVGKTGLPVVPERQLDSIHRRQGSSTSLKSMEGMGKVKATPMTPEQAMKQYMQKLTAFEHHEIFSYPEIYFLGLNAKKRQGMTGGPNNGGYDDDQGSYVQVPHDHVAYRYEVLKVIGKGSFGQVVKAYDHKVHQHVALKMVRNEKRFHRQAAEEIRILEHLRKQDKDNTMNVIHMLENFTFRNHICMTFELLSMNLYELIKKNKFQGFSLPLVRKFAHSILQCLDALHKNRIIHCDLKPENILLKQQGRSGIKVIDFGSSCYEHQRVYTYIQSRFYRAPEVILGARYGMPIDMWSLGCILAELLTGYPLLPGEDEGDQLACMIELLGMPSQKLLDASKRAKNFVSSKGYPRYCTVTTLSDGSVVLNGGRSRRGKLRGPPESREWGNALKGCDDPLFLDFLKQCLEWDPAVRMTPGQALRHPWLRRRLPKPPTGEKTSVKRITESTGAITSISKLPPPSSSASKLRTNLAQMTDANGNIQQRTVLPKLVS
Assay: Inhibition of GST-fused human recombinant DYRK2 expressed in Escherichia coli using GRSRSRSRSRSR peptide as substrate incubated for 30 mins in presence of ATP by scintillation counting method
Conditions: not given

In order of falling IC50:
1. COc1cc(/C=C2\N=C(Nc3ccc(N4CCNCC4)cc3)NC2=O)ccc1O  2.1 µM
2. O=C1NC(Nc2ccc(N3CCNCC3)cc2)=N/C1=C\c1ccc2c(c1)OC=CO2  0.35 µM
3. O=C1NC(Nc2ccccc2)=N/C1=C\c1ccc2c(c1)OCCO2  0.092 µM

Target: T2, Dual specificity tyrosine-phosphorylation-regulated kinase 3 (Homo sapiens, UniProt O43781)
T2 sequence (O43781 whole entry): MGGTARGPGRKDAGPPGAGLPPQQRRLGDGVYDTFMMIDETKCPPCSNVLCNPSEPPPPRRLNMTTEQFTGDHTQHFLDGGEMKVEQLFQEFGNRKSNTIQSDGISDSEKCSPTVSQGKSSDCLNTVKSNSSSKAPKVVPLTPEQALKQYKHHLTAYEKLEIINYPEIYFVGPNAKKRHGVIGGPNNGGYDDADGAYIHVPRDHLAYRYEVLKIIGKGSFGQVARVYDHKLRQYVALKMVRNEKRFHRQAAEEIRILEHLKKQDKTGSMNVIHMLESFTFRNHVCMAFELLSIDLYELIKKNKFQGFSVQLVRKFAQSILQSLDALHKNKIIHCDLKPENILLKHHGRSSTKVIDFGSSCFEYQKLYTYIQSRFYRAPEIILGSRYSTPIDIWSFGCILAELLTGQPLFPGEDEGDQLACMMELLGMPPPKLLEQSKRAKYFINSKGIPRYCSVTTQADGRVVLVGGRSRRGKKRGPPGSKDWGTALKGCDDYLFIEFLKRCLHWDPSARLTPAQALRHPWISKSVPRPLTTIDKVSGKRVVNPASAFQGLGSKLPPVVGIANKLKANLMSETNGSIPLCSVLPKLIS
Assay: Inhibition of GST-fused human recombinant DYRK3 expressed in Escherichia coli using GRSRSRSRSRSR peptide as substrate incubated for 30 mins in presence of ATP by scintillation counting method
Conditions: not given

In order of rising IC50:
1. O=C1NC(Nc2ccccc2)=N/C1=C\c1ccc2c(c1)OCCO2  0.42 µM
2. O=C1NC(Nc2ccc(N3CCNCC3)cc2)=N/C1=C\c1ccc2c(c1)OC=CO2  1.1 µM
3. COc1cc(/C=C2\N=C(Nc3ccc(N4CCNCC4)cc3)NC2=O)ccc1O  1.5 µM

Target: Serine/threonine-protein kinase pim-1 (Homo sapiens, UniProt P11309)
Assay: Inhibition of human recombinant Pim1 expressed in Escherichia coli using histone H1 as substrate incubated for 30 mins in presence of ATP by scintillation counting method
Conditions: not given

Chain of Serine/threonine-protein kinase pim-1 (P11309 whole entry): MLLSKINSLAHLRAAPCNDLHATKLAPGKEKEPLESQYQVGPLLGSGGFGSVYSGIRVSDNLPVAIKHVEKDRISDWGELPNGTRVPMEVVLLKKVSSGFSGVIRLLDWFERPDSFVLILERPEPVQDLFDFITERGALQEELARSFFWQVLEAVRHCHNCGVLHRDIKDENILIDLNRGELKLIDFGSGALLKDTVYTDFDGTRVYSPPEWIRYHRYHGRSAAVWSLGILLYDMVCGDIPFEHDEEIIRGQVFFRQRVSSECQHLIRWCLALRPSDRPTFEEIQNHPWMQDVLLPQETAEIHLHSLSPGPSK

Compared with `COc1cc(/C=C2\N=C(Nc3ccc(N4CCNCC4)cc3)NC2=O)ccc1O`, `O=C1NC(Nc2ccc(N3CCNCC3)cc2)=N/C1=C\c1ccc2c(c1)OC=CO2` is lower in IC50: over 10 µM for the first, 5.4 µM for the second.

Compound `O=C1NC(Nc2ccccc2)=N/C1=C\c1ccc2c(c1)OCCO2` has an IC50 of 1 µM.

Target: Casein kinase 2 (Homo sapiens, UniProt P67870+P68400+P19784+Q8NEV1)
Assay: Inhibition of human recombinant CK2 using RRRDDDSDDD peptide as substrate incubated for 30 mins in presence of ATP by scintillation counting method
Type: protein assay
Conditions: not given

In order of rising IC50:
1. O=C1NC(Nc2ccccc2)=N/C1=C\c1ccc2c(c1)OCCO2  0.97 µM
2. [2H]C1([2H])Oc2ccc(/C=C3\N=C(Nc4ccccc4)NC3=O)cc2O1  1.6 µM
3. O=C1NC(Nc2ccc(N3CCNCC3)cc2)=N/C1=C\c1ccc2c(c1)OC=CO2  3 µM

System: HT-22
Assay: Neuroprotective activity against glutamate-induced cell death in mouse HT-22 cells treated for 24 hrs by MTS assay
Type: functional, cell-based
Conditions: HT-22, 24 h

In order of rising EC50:
1. O=C1NC(Nc2ccc(N3CCNCC3)cc2)=N/C1=C\c1ccc2c(c1)OC=CO2  1.25 µM
2. [2H]C1([2H])Oc2ccc(/C=C3\N=C(Nc4ccccc4)NC3=O)cc2O1  4.9 µM
3. COc1cc(/C=C2\N=C(Nc3ccc(N4CCNCC4)cc3)NC2=O)ccc1O  7 µM
4. O=C1NC(Nc2ccccc2)=N/C1=C\c1ccc2c(c1)OCCO2  10 µM

System: U2OS
Assay: Induction of PI3K/mTor-dependent autophagy in human U2OS cells assessed as number of LC3 foci per cell at 10 uM measured after 4 hrs
Type: cell-based
Conditions: filed as activator

In order of falling Activity:
1. O=C1NC(Nc2ccc(N3CCNCC3)cc2)=N/C1=C\c1ccc2c(c1)OC=CO2  7.3
2. O=C1NC(Nc2ccccc2)=N/C1=C\c1ccc2c(c1)OCCO2  6.6
3. COc1cc(/C=C2\N=C(Nc3ccc(N4CCNCC4)cc3)NC2=O)ccc1O  6.3

Target: Cannabinoid receptor 1 (Homo sapiens, UniProt P21554)
Assay: Antagonist activity at CP-55940-activated CB1 receptor (unknown origin) at 10 uM by beta-arrestin assay relative to control
Type: functional
Design: scale not given: the % may be the effect or the level left
Conditions: not given

Chain of Cannabinoid receptor 1 (P21554 whole entry): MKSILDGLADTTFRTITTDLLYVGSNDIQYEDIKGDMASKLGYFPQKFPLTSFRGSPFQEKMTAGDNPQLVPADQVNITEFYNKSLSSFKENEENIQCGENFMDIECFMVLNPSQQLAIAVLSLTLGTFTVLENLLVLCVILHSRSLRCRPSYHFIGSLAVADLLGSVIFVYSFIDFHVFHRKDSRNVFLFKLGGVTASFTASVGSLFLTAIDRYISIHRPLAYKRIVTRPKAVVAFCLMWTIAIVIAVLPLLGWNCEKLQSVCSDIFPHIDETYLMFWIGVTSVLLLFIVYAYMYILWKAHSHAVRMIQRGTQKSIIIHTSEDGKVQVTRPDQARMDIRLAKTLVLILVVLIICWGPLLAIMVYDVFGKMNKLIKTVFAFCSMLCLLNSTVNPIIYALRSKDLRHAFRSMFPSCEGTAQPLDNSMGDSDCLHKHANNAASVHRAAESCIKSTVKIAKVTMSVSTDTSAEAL

In order of rising Activity:
1. COc1cc(/C=C2\N=C(Nc3ccc(N4CCNCC4)cc3)NC2=O)ccc1O  -26.8%
2. O=C1NC(Nc2ccc(N3CCNCC3)cc2)=N/C1=C\c1ccc2c(c1)OC=CO2  -20%

Same assay, conditions: filed as antagonist

Work on `O=C1NC(Nc2ccccc2)=N/C1=C\c1ccc2c(c1)OCCO2` yielded an Activity of 96.3%.

System: not listed separately
Assay: Neurotoxicity against mouse HT-22 cells assessed as cell survival at 20 uM treated for 24 hrs by MTS assay
Type: toxicity, cell-based
Conditions: ht-22, 24 h

With `COc1cc(/C=C2\N=C(Nc3ccc(N4CCNCC4)cc3)NC2=O)ccc1O` the Activity was “Non-Toxic”.
With `O=C1NC(Nc2ccc(N3CCNCC3)cc2)=N/C1=C\c1ccc2c(c1)OC=CO2` the Activity was “Non-Toxic”.
With `O=C1NC(Nc2ccccc2)=N/C1=C\c1ccc2c(c1)OCCO2` the Activity was “Non-Toxic”.
For `[2H]C1([2H])Oc2ccc(/C=C3\N=C(Nc4ccccc4)NC3=O)cc2O1`, the Activity was “Non-Toxic”.
